Laboratory results from ChEMBL document CHEMBL1157802, “5-Functionalized indazoles as glucocorticoid receptor agonists” (Bioorg Med Chem Lett, 2010).

Columns and labels:
[1] = molecular target: Voltage-gated inwardly rectifying potassium channel KCNH2 (Homo sapiens, UniProt Q12809); assay: Inhibition of human ERG by patch clamp method
Mus musculus [2] = assay: Antiinflammatory activity in mouse assessed as reduction of LPS-stimulated TNFalpha expression at 6 mg/kg relative to control; assay type: functional; design: scale not given: the % may be the effect or the level left
Mus musculus [3] = assay: Antiinflammatory activity in mouse assessed as reduction of LPS-stimulated TNFalpha expression at 3 mg/kg relative to control; assay type: functional; design: scale not given: the % may be the effect or the level left
hERG (KCNH2) = hERG (KCNH2) (Homo sapiens, UniProt Q12809); assay: Inhibition of human ERG at 1 uM
hERG (KCNH2), sequence (Q12809 whole entry): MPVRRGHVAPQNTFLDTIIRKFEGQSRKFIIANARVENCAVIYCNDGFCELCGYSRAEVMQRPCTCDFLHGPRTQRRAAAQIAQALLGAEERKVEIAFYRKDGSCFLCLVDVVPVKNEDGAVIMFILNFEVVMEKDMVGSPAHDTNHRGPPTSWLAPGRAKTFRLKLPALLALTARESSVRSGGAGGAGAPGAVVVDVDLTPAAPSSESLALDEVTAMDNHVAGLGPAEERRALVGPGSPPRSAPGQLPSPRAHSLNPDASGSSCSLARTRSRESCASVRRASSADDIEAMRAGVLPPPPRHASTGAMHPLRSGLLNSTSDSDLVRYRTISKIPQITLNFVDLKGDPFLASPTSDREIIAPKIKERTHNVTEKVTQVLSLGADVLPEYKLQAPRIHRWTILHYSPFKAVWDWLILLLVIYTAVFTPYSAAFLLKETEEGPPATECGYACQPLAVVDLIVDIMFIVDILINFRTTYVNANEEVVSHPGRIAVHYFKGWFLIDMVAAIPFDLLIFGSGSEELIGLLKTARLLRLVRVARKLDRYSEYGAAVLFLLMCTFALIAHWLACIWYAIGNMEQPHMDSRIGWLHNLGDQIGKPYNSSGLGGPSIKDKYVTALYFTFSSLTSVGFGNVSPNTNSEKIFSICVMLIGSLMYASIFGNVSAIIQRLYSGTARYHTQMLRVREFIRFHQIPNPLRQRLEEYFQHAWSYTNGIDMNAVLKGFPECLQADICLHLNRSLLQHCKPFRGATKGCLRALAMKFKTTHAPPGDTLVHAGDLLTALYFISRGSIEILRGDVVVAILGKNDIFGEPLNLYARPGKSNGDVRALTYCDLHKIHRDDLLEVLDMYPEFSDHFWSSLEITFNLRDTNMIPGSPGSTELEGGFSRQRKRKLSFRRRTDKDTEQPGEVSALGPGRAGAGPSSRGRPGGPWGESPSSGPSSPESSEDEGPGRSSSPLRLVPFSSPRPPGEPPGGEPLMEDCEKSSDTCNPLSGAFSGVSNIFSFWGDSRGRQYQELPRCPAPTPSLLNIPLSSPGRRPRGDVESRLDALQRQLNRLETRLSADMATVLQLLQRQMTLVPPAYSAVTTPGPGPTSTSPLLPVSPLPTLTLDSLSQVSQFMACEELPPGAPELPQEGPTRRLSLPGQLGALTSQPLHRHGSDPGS

Glucocorticoid receptor [4] = molecular target: T1, Glucocorticoid receptor (Homo sapiens, UniProt P04150); assay: Agonist activity at glucocorticoid receptor in human MDA-kb2 cells transfected with MMTV-LUC assessed as induction of MMTV-LTR/promoter linked LUC gene by luciferase transactivation assay; assay type: functional, cell-based
T1 sequence (P04150 whole entry): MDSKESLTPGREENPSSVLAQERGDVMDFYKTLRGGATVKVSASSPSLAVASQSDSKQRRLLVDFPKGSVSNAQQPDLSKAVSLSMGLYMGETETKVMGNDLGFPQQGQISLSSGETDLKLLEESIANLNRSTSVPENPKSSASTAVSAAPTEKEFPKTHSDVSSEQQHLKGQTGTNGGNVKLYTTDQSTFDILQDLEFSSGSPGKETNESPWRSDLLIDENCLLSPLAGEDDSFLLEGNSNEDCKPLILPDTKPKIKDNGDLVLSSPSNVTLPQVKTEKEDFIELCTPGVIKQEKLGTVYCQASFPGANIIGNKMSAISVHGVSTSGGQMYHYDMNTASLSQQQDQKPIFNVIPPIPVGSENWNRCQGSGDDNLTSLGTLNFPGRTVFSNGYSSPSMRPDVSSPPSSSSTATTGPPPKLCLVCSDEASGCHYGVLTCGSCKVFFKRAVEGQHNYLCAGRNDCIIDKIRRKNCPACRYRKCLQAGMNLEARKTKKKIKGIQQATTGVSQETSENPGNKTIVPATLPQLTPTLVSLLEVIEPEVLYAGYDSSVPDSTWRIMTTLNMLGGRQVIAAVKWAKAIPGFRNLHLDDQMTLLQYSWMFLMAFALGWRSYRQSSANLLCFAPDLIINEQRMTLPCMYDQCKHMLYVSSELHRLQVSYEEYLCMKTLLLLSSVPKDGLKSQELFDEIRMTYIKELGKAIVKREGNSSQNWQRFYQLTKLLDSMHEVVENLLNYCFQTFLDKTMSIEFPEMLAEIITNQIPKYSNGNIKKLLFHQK

Mus musculus [5] = assay: Antiinflammatory activity in mouse assessed as reduction of LPS-stimulated TNFalpha expression at 60 mg/kg relative to control; assay type: functional; design: scale not given: the % may be the effect or the level left
Glucocorticoid receptor [6] = molecular target: T1, Glucocorticoid receptor; assay: Agonist activity at glucocorticoid receptor in human fibroblast assessed as inhibition of IL-1-beta-induced IL6 production treated 1 hr before IL1-beta challenge measured after 24 hrs by transrepression assay; assay type: functional
Glucocorticoid receptor [7] = molecular target: T1, Glucocorticoid receptor
Description: Binding affinity to human glucocorticoid receptor by fluorescence polarization competitive binding assay

Voltage-gated inwardly rectifying potassium channel KCNH2, sequence (Q12809 whole entry): as the sequence (Q12809 whole entry) above

Structure (SMILES)	IC50 [1]	Activity (Mus musculus [2])	Activity (Mus musculus [3])	inhibition at 1 µM (hERG (KCNH2))	EC50 (Glucocorticoid receptor [4]; read-out: EC50)	Activity (Mus musculus [5])	EC50 (Glucocorticoid receptor [6])	IC50 (Glucocorticoid receptor [7])	EC50 (Glucocorticoid receptor [4]; mda-kb2)
OC(c1ccc2c(cnn2-c2ccc(F)cc2)c1)(c1cccc(Cl)c1Cl)C(F)(F)F (single isomer, unassigned; (+)) [1-(2,3-DICHLOROPHENYL)-2,2,2-TRIFLUORO-1-(1-(4-FLUOROPHENYL)-1H-INDAZOL-5-YL)ETHANOL (ENANTIOMERIC MIX)]	> 10000 nM	50%	25%	< 50%	350 nM	68%	19 nM	34 nM	–
N#Cc1cc(C(O)(c2ccc3c(cnn3-c3ccc(F)cc3)c2)C(F)(F)F)ccc1F (single isomer, unassigned; (-))	> 10000 nM	–	–	< 50%	–	–	112 nM	54 nM	Not Active
